Experimental data from patent US10398692B2, “Terconazole composition and method” (Curatek Pharmaceuticals Holding, Inc., priority 2006, dated 2019).
Values after ≈ are worked out from the molar mass of the structure shown.

Experiments:
[1] = cited from earlier work
[2] = Solubility of terconazole in water at adjusted pH (Table 1A); format: physicochemical; conditions: for solubility: water
Description: In a related experiment, the solubility of terconazole in water was increased to about 2.9 percent by weight using acetic acid at pH of about 5.

solubility ([2]; aqueous buffer, pH 4.23 adjusted with HCl): 3400 µg/mL (≈ 6.39 mM)
solubility of terconazole in water ([2]; using acetic acid at pH of about 5): about 2.9 percent by weight
solubility ([2]; aqueous buffer, pH 4.99 adjusted with acetic acid): 29400 µg/mL (≈ 55.2 mM)
solubility ([2]; pH 7.1, pH not adjusted): 70 µg/mL (≈ 0.131 mM)
SMILES: CC(C)N1CCN(c2ccc(OCC3COC(Cn4cncn4)(c4ccc(Cl)cc4Cl)O3)cc2)CC1 (stereo not drawn) [Terconazole, cis-1-[p[[2-(2,4-dichlorophenyl)-2-(1H-1,2,4-triazol-1-ylmethyl)-1,3-dioxolan-4-yl]methoxy]phenyl]-4-isopropylpiperazine]
solubility in water [1]: about 0.007 percent by weight
